# Data reported in patent US20120294879A1, “CONSENSUS SEQUENCE FOR INFLUENZA A VIRUS” (priority 2009, published 2012).
# How the values were obtained:
# Assay type in all cases: cell-based
# [1] = system: splenocytes of HLA-DR2 (DRB1*1501) transgenic mice; parameters: key to DR2: average IFN-γ spots forming cells per million splenocytes: — represents no positive ELISpot response
# [2] = system: splenocytes of HLA-A24 (A*2402) transgenic mice; parameters: key to A24: average IFN-γ spots forming cells per million splenocytes: — represents no positive ELISpot response
# [3] = system: splenocytes of HLA-DR4 (DRB1*0401) transgenic mice; parameters: key: — represents no positive ELISpot response
# [4] = system: splenocytes of HLA-B7 (B*0702) transgenic mice; parameters: key to B7: average IFN-γ spots forming cells per million splenocytes: — represents no positive ELISpot response
# [5] = system: splenocytes of HLA-DR3 (DRB1*0301) transgenic mice; parameters: key to DR3: average IFN-γ spots forming cells per million splenocytes: — represents no positive ELISpot response
Sequence,DR2: average IFN-γ spots forming cells per million splenocytes [1],A24: average IFN-γ spots forming cells per million splenocytes [2],DR4: average IFN-γ spots forming cells per million splenocytes [3],B7: average IFN-γ spots forming cells per million splenocytes [4],DR3: average IFN-γ spots forming cells per million splenocytes [5],DR3: lowest concentration of peptide giving positive ELISpot response in peptide titration [5],DR2: lowest concentration of peptide giving positive ELISpot response in peptide titration [1],A24: lowest concentration of peptide giving positive ELISpot response in peptide titration [2]
APIMFSNKMARLGKGYM,—,—,—,—,175 ± 0(0.1) IFN-γ spots forming cells per million splenocytes,175 ± 0(0.1) μg/ml,,
DKLTQGRQTYDWTLNRN,—,—,—,—,142 ± 6(0.1) IFN-γ spots forming cells per million splenocytes,142 ± 6(0.1) μg/ml,,
DQSLIIAARNIVRRAAV,—,—,—,—,169 ± 12(0.1) IFN-γ spots forming cells per million splenocytes,169 ± 12(0.1) μg/ml,,
DYRYTYRCHRGDTQIQT,109 ± 13(1) IFN-γ spots forming cells per million splenocytes,—,76 ± 2(0.1) IFN-γ spots forming cells per million splenocytes,—,166 ± 22(0.1) IFN-γ spots forming cells per million splenocytes,166 ± 22(0.1) μg/ml,109 ± 13(1) μg/ml,
ESADMSIGVTVIKNNMI,75 ± 10(0.1) IFN-γ spots forming cells per million splenocytes,—,—,—,—,,75 ± 10(0.1) μg/ml,
ESKSMKLRTQIPAEMLA,84 ± 20(0.1) IFN-γ spots forming cells per million splenocytes,—,—,—,—,,84 ± 20(0.1) μg/ml,
EVHIYYLEKANKIKSEK,—,—,37 ± 11(0.1) IFN-γ spots forming cells per million splenocytes,—,—,,,
EYDAVATTHSWVPKRNR,—,—,59 ± 2(0.1) IFN-γ spots forming cells per million splenocytes,—,—,,,
FFYRYGFVANFSMELPS,—,210 ± 25 IFN-γ spots forming cells per million splenocytes,—,—,—,,,(0.1) μg/ml
GPAKNMEYDAVATTHSW,—,—,41 ± 9(0.1) IFN-γ spots forming cells per million splenocytes,—,142 ± 45(0.1) IFN-γ spots forming cells per million splenocytes,142 ± 45(0.1) μg/ml,,
GRFYIQMCTELKLNDYE,—,—,—,—,66 ± 7(1) IFN-γ spots forming cells per million splenocytes,66 ± 7(1) μg/ml,,
IGVTVIKNNMINNDLGP,159 ± 53(0.1) IFN-γ spots forming cells per million splenocytes,—,—,—,—,,159 ± 53(0.1) μg/ml,
KHGTFGPVHFRNQVKIR,—,—,316 ± 20(0.1) IFN-γ spots forming cells per million splenocytes,—,—,,,
KLLGINMSKKKSYINRT,—,—,—,—,116 ± 10(0.1) IFN-γ spots forming cells per million splenocytes,116 ± 10(0.1) μg/ml,,
KRSYEQMETDGERQNAT,—,—,52 ± 29(0.1) IFN-γ spots forming cells per million splenocytes,—,—,,,
KWVRELVLYDKEEIRRI,—,—,—,—,614 ± 21(0.1) IFN-γ spots forming cells per million splenocytes,614 ± 21(0.1) μg/ml,,
KYPITADKRITEMIPER,—,—,—,—,499 ± 4(0.1) IFN-γ spots forming cells per million splenocytes,499 ± 4(0.1) μg/ml,,
LASTTAKAMEQMAGSSE,—,—,115 ± 21(1) IFN-γ spots forming cells per million splenocytes,—,—,,,
LEKANKIKSEKTHIHIF,—,—,41 ± 10(0.1) IFN-γ spots forming cells per million splenocytes,—,—,,,
